Source: the Bradley open melting point set (2014)
Where “and” joins values, the source holds several entries; their conditions need not be identical. Equal values may be shown once.

melting point	SMILES
147 °C	CCCCc1ccc(NC(=O)c2ccc(OC)cc2)cc1 [benzamide, N-(4-butylphenyl)-4-methoxy-]
103 °C	NNS(=O)(=O)c1ccccc1 [benzenesulfonyl hydrazide]
156 °C	O=C1CCC(c2ccccc2)(C2CCN(Cc3ccccc3)CC2)C(=O)N1 (stereo not drawn) [benzetimide]
12 °C	NC(c1ccccc1)c1ccccc1 [benzhydrylamine]
95 °C	O=C(C(=O)c1ccccc1)c1ccccc1 [benzil]
170 °C and 172 °C	c1ccc2[nH]cnc2c1 [benzimidazole]
194 °C	O=C(O)c1cc2ccccc2o1 [benzo[b]furan-2-carboxylic acid]
255 °C	OB(O)c1cc2ccccc2s1 [benzo[b]thiophene-2-boronic acid]
122 °C	O=C(O)c1ccccc1 [benzoic acid]
123 °C	O=C(O)c1ccccc1 [benzoic_acid]
177 °C	OC(c1ccccc1)(c1ccccc1)C(O)(c1ccccc1)c1ccccc1 [benzopinacol]
114 °C	O=C(Cl)c1nc2ccccc2s1 [benzothiazole-2-carbonyl chloride]
2 °C	c1ccc2scnc2c1 [benzothiazole]
149 °C	O=S(=O)(Cc1ccccc1)c1ccccc1 [benzyl phenyl sulfone]
-15 °C	OCc1ccccc1 [benzyl_alcohol]
3 °C	c1ccc(COCc2ccccc2)cc1 [benzyl_ether]
149 °C	NC(=O)NCc1ccccc1 [benzylurea]
145 °C	OC[C@H]1O[C@@H](O)[C@H](O)[C@H](O)[C@@H]1O [beta-D-allose]
180 °C	CC1=C(/C=C/C(C)=C/C=C/C(C)=C/C=C/C=C(C)/C=C/C=C(C)/C=C/C2=C(C)CCCC2(C)C)C(C)(C)CCC1 [beta-carotene]
177 °C	C[C@]12CC[C@@H]3c4ccc(O)cc4CC[C@H]3[C@@H]1CC[C@@H]2O [beta-estradiol]
232 °C	C[C@H]1C[C@H]2[C@@H]3CCC4=CC(=O)C=C[C@]4(C)[C@@]3(F)[C@@H](O)C[C@]2(C)[C@@]1(O)C(=O)CO [betamethasone]

melting point	SMILES
55 °C	c1ccc(CCc2ccccc2)cc1 [bibenzyl] [listing 1 of 2 here]
52 °C	c1ccc(CCc2ccccc2)cc1 [bibenzyl] [listing 2 of 2 here]
158 °C	Nc1ccc(-c2ccc(N)cc2N)c(N)c1 [biphenyl-2,2',4,4'-tetramine]
209 °C	OB(O)c1cccc(-c2ccccc2)c1 [biphenyl-3-boronic acid]
145 °C	COc1cc(C(=O)c2ccc(-c3ccccc3)cc2)c([N+](=O)[O-])cc1OC [biphenyl-4-yl(4,5-dimethoxy-2-nitrophenyl)methanone]
110 °C	N#CC(c1ccccc1[N+](=O)[O-])c1ccccc1[N+](=O)[O-] [bis(2-nitrophenyl)acetonitrile]
73 °C	Clc1ccc(SSc2ccc(Cl)cc2)cc1 [bis(4-chlorophenyl) disulfide]
88.5 °C	CC(C)(C)OC(=O)NCC(=O)O [boc-glycine]
207 °C	CC1(C)[C@H]2CC[C@]1(C)[C@H](O)C2 [borneol]
207 °C	CC1(C)[C@@H]2CC[C@@]1(C)[C@@H](O)C2 [borneol]
230 °C	CCCCNc1cc(C(=O)O)cc(S(N)(=O)=O)c1Oc1ccccc1 [bumetanide]
116 °C	CS(=O)(=O)OCCCCOS(C)(=O)=O [busulfan]
-138 °C and -137 °C	CCCC [butane]
69 °C	CCCCOC(=O)c1ccc(O)cc1 [butyl 4-hydroxybenzoate]
69 °C	CCCCOC(=O)c1ccc(O)cc1 [butyl p-hydroxybenzoate]
-12 °C	CCCCOC(=O)c1ccccc1 [butyl_benzoate]
68.5 °C (2×) and 69 °C	CCCCOC(=O)c1ccc(O)cc1 [butylparaben]
115 °C	CCCC(N)=O [butyramide]
121 °C	COc1cc(C(=O)NCCCCCC(=O)O)cc(OC)c1OC [capobenicacid]
190 °C	NC(=O)N1c2ccccc2C=Cc2ccccc21 [carbamazepine]
190 °C and 192 °C (2×)	NC(=O)N1c2ccccc2C=Cc2ccccc21 [carbazepine]

melting point	SMILES
57 °C	CC(=O)Oc1ccccc1O [catechol_monoacetate_(ortho)]
190 °C	Cc1nnc(SCC2=C(C(=O)O)N3C(=O)[C@@H](NC(=O)Cn4cnnn4)[C@H]3SC2)s1 [cefazolin]
158 °C	Cc1ccc(-c2cc(C(F)(F)F)nn2-c2ccc(S(N)(=O)=O)cc2)cc1 [celecoxib]
151 °C	O=C(N[C@H](CO)[C@H](O)c1ccc([N+](=O)[O-])cc1)C(Cl)Cl [chloramphenicol]
233 °C	Nc1ncnc(Nc2ccc(Cl)cc2)n1 [chlorazanil]
-44 °C	ClC1CCCCC1 [chlorocyclohexane]
-63 °C	ClC(Cl)Cl [chloroform]
57 °C	CN(C)CCCN1c2ccccc2Sc2ccc(Cl)cc21 [chlorpromazine]
201 °C	C[C@H](CCC(=O)O)[C@H]1CC[C@H]2[C@@H]3[C@H](O)C[C@@H]4C[C@H](O)CC[C@]4(C)[C@H]3C[C@H](O)[C@]12C [cholic acid]
175 °C	N#Cc1coc2ccccc2c1=O [chromone-3-carbonitrile]
254 °C	c1ccc2c(c1)ccc1c3ccccc3ccc21 [chrysene]
133 °C	O=C(O)/C=C/c1ccccc1 [cinnamic acid]
7 °C	ClC/C=C/c1ccccc1 [cinnamyl chloride]
34 °C	OCC=Cc1ccccc1 [cinnamyl_alcohol]
191 °C	O=C(O)[C@H]1CCCC[C@H]1C(=O)O [cis-1,2-cyclohexanedicarboxylic acid]
-87 °C	C[C@H]1CC[C@@H](C)CC1 [cis-1,4-dimethylcyclohexane]
7 °C	OC/C=C\CO [cis-2-butene-1,4-diol]
-151 °C	C/C=C\CC [cis-2-pentene]
166 °C	O=C1OC(=O)C2C3C=CC(C3)C12 (stereo not drawn) [cis-5-norbornene-endo-2,3-dicarboxylic anhydride]
8 °C	CC1=CC(=O)OC1=O [citraconic anhydride]
194 °C	COc1cc(N)c(Cl)cc1C(=O)NC1CCN(Cc2ccccc2)CC1 [clebopride]

melting point	SMILES
211 °C	Clc1ccc(cc1)NC3=CC4=Nc2ccccc2N(C4=C/C3=NC(C)C)c5ccc(Cl)cc5 [clofazimine]
147 °C	Clc1ccccc1C(c1ccccc1)(c1ccccc1)n1ccnc1 [clotrimazole]
184 °C	CN1CCN(C2=Nc3cc(Cl)ccc3Nc3ccccc32)CC1 [clozapine]
222 °C	CC(=O)OCC(=O)[C@@]1(O)CC[C@H]2[C@@H]3CCC4=CC(=O)CC[C@]4(C)[C@H]3C(=O)C[C@@]21C [cortisone acetate]
192 °C	O=C(O)c1cc2ccccc2oc1=O [coumarin-3-carboxylic acid]
108 °C	N#CCC(=O)NN [cyanoacetic acid hydrazide]
21 °C	OC1CCCCC1 [cyclohexanol]
15 °C	OC1CCCCCCC1 [cyclooctanol]
40 °C	O=C1CCCCCCC1 [cyclooctanone]
-51 °C	O=C1CCCC1 [cyclopentanone]
-135 °C	C1=CCCC1 [cyclopentene]
93 °C	OB(O)C1CC1 [cyclopropylboronic acid]
-177 °C	CC1CC1 [cyclopropylmethane]
113 °C	CN1CCC(=C2c3ccccc3C=Cc3ccccc32)CC1 [cyproheptadine]
291 °C	C[C@@H](N)C(=O)O [d-alanine]
72 °C	CN(C)c1cccc2c(S(=O)(=O)Cl)cccc12 [dansyl chloride]
101 °C	BBBBBBBBBB [decaborane]
93 °C	O=C(c1c(F)c(F)c(F)c(F)c1F)c1c(F)c(F)c(F)c(F)c1F [decafluorobenzophenone]

SMILES	melting point
O=S(=O)(Cl)c1ccccc1 [benzenesulfonyl chloride]	15 °C
c1ccc2c(c1)cc1ccc3cccc4ccc2c1c34 [benzo(a)pyrene]	179 °C
c1ccc2c(c1)cc1ccc3cccc4ccc2c1c34 [benzo[a]pyrene]	176 °C and 179 °C
[O-][n+]1onc2ccccc21 [benzofuroxan]	69 °C
ClC(Cl)(Cl)c1ccccc1 [benzotrichloride]	-4 °C
O=C(Cl)OCc1ccccc1 [benzyl chloroformate]	-20 °C
C1CCC(C2CCCCC2)CC1 [bicyclohexyl]	4 °C
O=S(=O)(c1ccc(Cl)cc1)c1ccc(Cl)cc1 [bis(4-chlorophenyl) sulfone]	149 °C
CCC(C)C1(CC)C(=O)NC(=O)NC1=O (stereo not drawn) [butabarbital]	166 °C
C=CCC1(CC(C)C)C(=O)NC(=O)NC1=O [butalbital] [listing 1 of 2 here]	138 °C
C=CCC1(CC(C)C)C(=O)NC(=O)NC1=O [butalbital] [listing 2 of 2 here]	140 °C
CNC(=O)Oc1cccc2ccccc12 [carbaryl]	142 °C
NNC(=O)NN [carbohydrazide]	156 °C
S=C=S [carbon disulfide]	-112 °C
Clc1ccccc1 [chlorobenzene]	-45 °C
C=C[C@H]1C[N@@]2CC[C@H]1C[C@H]2[C@H](O)c1ccnc2ccccc12 [cinchonidine]	204 °C
C=C[C@H]1C[N@@]2CC[C@H]1C[C@@H]2[C@@H](O)c1ccnc2ccccc12 [cinchonine]	258 °C
C1CC[C@H]2CCCC[C@H]2C1 [cis-Decahydronaphthalene]	-43 °C
C1CC[C@H]2CCCC[C@H]2C1 [cis-decahydronaphthalene]	-43 °C
COc1ccc2c3c1O[C@H]1[C@@H](O)C=C[C@H]4[C@@H](C2)N(C)CC[C@@]341 [codeine]	158 °C
COc1cc2c(c(OC)c1OC)-c1ccc(OC)c(=O)cc1[C@@H](NC(C)=O)CC2 [colchicine]	146 °C
N#CN [cyanamide]	45 °C
